In the oligonucleotide strings, read from the 5' end, every base follows the letter of its sugar. An asterisk marks phosphorothioate; unmarked linkages are phosphodiester. Other units and linkages are bracketed, terminal groups are in braces. A string of capitals states the bases alone. e = 2'-O-(2-methoxyethyl) (MOE); [5mC] = 5-methylcytosine; d = 2'-deoxy (DNA)
Legend:
[1] = tested on: apolipoprotein B mRNA; assay: LDLr(-/-) mice dose response (Example 44): apolipoprotein B mRNA; type: in vivo, mouse; conditions: six weeks
Protocol: (§1) LDLr(−/−) mice, purchased from Taconic (Germantown, N.Y.) were used to evaluate antisense oligonucleotides for their potential to lower apolipoprotein B mRNA or protein levels, as well as phenotypic endpoints associated with apolipoprotein B. LDLr(−/−) mice were separated into groups of males and females. LDLr(−/−) mice were dosed intraperitoneally twice a week for six weeks with either 10, 25, or 50 mg/kg of ISIS 147764 (SEQ ID NO: 109) or ISIS 270906 (SEQ ID NO: 856) which is a 4 base mismatch of ISIS 147764, or with saline, or 20 mg/kg of Atorvastatin. At study termination animals were sacrificed and evaluated for several phenotypic markers.

[2] = LDLr(-/-) mice dose response (Example 44): liver enzyme, cholesterol and triglyceride levels; type: in vivo, mouse; conditions: six weeks
Protocol: as §1

[3] = tested on: apolipoprotein B mRNA; assay: High fat fed mice, time-dependent effects and after cessation of dosing (Example 51): apolipoprotein B mRNA in liver; type: in vivo, mouse; conditions: for % Inhibition apolipoprotein B mRNA: liver
Protocol: In a further embodiment of the invention, the inhibition of apolipoprotein B mRNA in mice was compared to liver oligonucleotide concentration, total cholesterol, LDL-cholesterol and HDL-cholesterol. Male C57Bl/6 mice receiving a high fat diet (60% fat) were evaluated over the course of 6 weeks for the effects of treatment with twice weekly intraperitoneal injections of 50 mg/kg ISIS 147764 (SEQ ID NO: 109) or 50 mg/kg of the control oligonucleotide ISIS 141923 (SEQ ID NO: 858). Control animals received saline treatment. Animals were sacrificed after 2 days, 1, 2, 4 and 6 weeks of treatment. Each treatment group at each time point consisted of 8 mice.
Target expression in liver was measured by real-time PCR as described by other examples herein and is expressed as percent inhibition relative to saline treated mice. Total, LDL- and HDL-cholesterol levels were measured by routine clinical analysis using an Olympus Clinical Analyzer (Olympus America Inc., Melville, N.Y.) and are presented in mg/dL. Results from saline-treated animals are shown for comparison. Intact oligonucleotide in liver tissue was measured by capillary gel electrophoresis and is presented as micrograms of oligonucleotide per gram of tissue.
The oligonucleotide treatments described in this example were duplicated to investigate the extent to which effects of ISIS 147764 persist following cessation of treatment. Mice were treated as described, and sacrificed 1, 2, 4, 6 and 8 weeks following the cessation of oligonucleotide treatment.

[4] = tested on: lipoprotein(a); assay: Lipoprotein(a) particle secretion from primary human hepatocytes, ELISA; type: cell-based; conditions: 24 hours
Protocol: Primary human hepatocytes (InVitro Technologies, Baltimore, Md.), cultured and transfected as described herein, were treated for 24 hours with 50 or 150 nM of ISIS 271009 (SEQ ID NO: 319), 281625 (SEQ ID NO: 224), 301012 (SEQ ID NO: 247) or 301027 (SEQ ID NO: 262). Cells were also treated with 150 nM of the control oligonucleotides ISIS 113529 (SEQ ID NO: 859) or ISIS 13650 (SEQ ID NO: 806). Untreated cells served as a control. Following 24 hours of oligonucleotide treatment, the amount of lipoprotein(a) in the culture medium collected from the treated cells was measured using a commercially available ELISA kit (ALerCHEK Inc., Portland, Me.). The results are the average of three experiments and are expressed as percent change in lipoprotein(a) secretion relative to untreated controls.

[5] = Transgenic mice dosing study (Example 52): serum total, LDL- and HDL-cholesterol; type: in vivo, mouse; conditions: 10 or 25 mg/kg, first 4 weeks of treatment
Protocol: A long-term study of inhibition of human apolipoprotein B by ISIS 301012 in C57BL/6NTac-TgN(APOB100) mice (Taconic, Germantown, N.Y.) was conducted for a 3 month period. Mice were dosed intraperitoneally twice a week with 10 or 25 mg/kg ISIS 301012 (SEQ ID No: 247) for 12 weeks. Saline-injected animals served as controls. Each treatment group comprised 4 animals.
Results are presented as mg/dL in serum and represent the average of 4 animals. Results from the saline control animals are also shown.

[6] = tested on: human apolipoprotein B protein; assay: Transgenic mice (Example 47): serum human apolipoprotein B protein by ELISA; type: in vivo, human transgene in mouse; conditions: 25 mg/kg, relative to saline-treated animals
Protocol: Serum samples were also collected at 2, 4, 6 and 8 weeks and were evaluated for human apolipoprotein B expression by using a human apolipoprotein B specific ELISA kit (ALerCHEK Inc., Portland, Me.). […] Treatment with ISIS 301012 reduced serum human apolipoprotein B protein by 70, 87, 81 and 41% at 2, 4, 6 and 8 weeks, respectively, relative to saline-treated control animals. Serum from transgenic mice was also subjected to immunoblot analysis using both human and mouse specific apolipoprotein B antibodies (US Biologicals, Swampscott, Mass. and Santa Cruz Biotechnology, Inc., Santa Cruz, Calif., respectively).

[7] = female LDLr(-/-) mice, 10 mg/kg i.p. twice a week
[8] = female LDLr(-/-) mice, 25 mg/kg i.p. twice a week
[9] = female LDLr(-/-) mice, 50 mg/kg i.p. twice a week
[10] = male LDLr(-/-) mice, 10 mg/kg i.p. twice a week
[11] = male LDLr(-/-) mice, 25 mg/kg i.p. twice a week
[12] = male LDLr(-/-) mice, 50 mg/kg i.p. twice a week
[13] = male and female LDLr(-/-) mice, 10, 25 or 50 mg/kg i.p. twice a week

## 147764 (eG*eT*e[5mC]*e[5mC]*e[5mC]*dT*dG*dA*dA*dG*dA*dT*dG*dT*d[5mC]*eA*eA*eT*eG*e[5mC]) [compound 147764]
[1]; [7]
  apolipoprotein B mRNA % control: 64.2 % control
[1]; [8]
  apolipoprotein B mRNA % control: 41.3 % control
[1]; [9]
  apolipoprotein B mRNA % control: 18.5 % control
[1]; [10]
  apolipoprotein B mRNA % control: 61.7 % control
[1]; [11]
  apolipoprotein B mRNA % control: 30.7 % control
[1]; [12]
  apolipoprotein B mRNA % control: 16.6 % control
[2]; [7]
  Lipoproteins CHOL: 269.6 mg/dL
  Lipoproteins HDL: 121.0 mg/dL
  Lipoproteins LDL: 127.8 mg/dL
  Lipoproteins TRIG: 140.8 mg/dL
  Liver Enzymes ALT: 27.2 IU/L
  Liver Enzymes AST: 82.0 IU/L
[2]; [8]
  Lipoproteins CHOL: 175.8 mg/dL
  Lipoproteins HDL: 99.5 mg/dL
  Lipoproteins LDL: 68.9 mg/dL
  Lipoproteins TRIG: 100.4 mg/dL
  Liver Enzymes ALT: 32.2 IU/L
  Liver Enzymes AST: 61.4 IU/L
[2]; [9]
  Lipoproteins CHOL: 138.2 mg/dL
  Lipoproteins HDL: 92.2 mg/dL
  Lipoproteins LDL: 45.9 mg/dL
  Lipoproteins TRIG: 98.0 mg/dL
  Liver Enzymes ALT: 120.4 IU/L
  Liver Enzymes AST: 134.6 IU/L
[2]; [10]
  Lipoproteins CHOL: 314.2 mg/dL
  Lipoproteins HDL: 150.0 mg/dL
  Lipoproteins LDL: 134.7 mg/dL
  Lipoproteins TRIG: 198.6 mg/dL
  Liver Enzymes ALT: 29.8 IU/L
  Liver Enzymes AST: 57.6 IU/L
[2]; [11]
  Lipoproteins CHOL: 185.0 mg/dL
  Lipoproteins HDL: 110.6 mg/dL
  Lipoproteins LDL: 66.2 mg/dL
  Lipoproteins TRIG: 104.2 mg/dL
  Liver Enzymes ALT: 78.8 IU/L
  Liver Enzymes AST: 112.6 IU/L
[2]; [12]
  Lipoproteins CHOL: 165.6 mg/dL
  Lipoproteins HDL: 107.8 mg/dL
  Lipoproteins LDL: 51.2 mg/dL
  Lipoproteins TRIG: 113.4 mg/dL
  Liver Enzymes ALT: 156.8 IU/L
  Liver Enzymes AST: 163.6 IU/L
[3]; high fat fed male C57Bl/6 mice, 50 mg/kg i.p. twice weekly, treatment period 1 week
  % Inhibition apolipoprotein B mRNA: 57%
[3]; high fat fed male C57Bl/6 mice, 50 mg/kg i.p. twice weekly, treatment period 2 weeks
  % Inhibition apolipoprotein B mRNA: 73%
[3]; high fat fed male C57Bl/6 mice, 50 mg/kg i.p. twice weekly, treatment period 4 weeks
  % Inhibition apolipoprotein B mRNA: 82%
[3]; high fat fed male C57Bl/6 mice, 50 mg/kg i.p. twice weekly, treatment period 6 weeks
  % Inhibition apolipoprotein B mRNA: 88%
[3]; high fat fed male C57Bl/6 mice, 50 mg/kg i.p. twice weekly, treatment period 2 days
  % Inhibition apolipoprotein B mRNA: 50%
[3]; high fat fed mice, 50 mg/kg i.p. twice weekly, 1 week after cessation of dosing
  % Inhibition apolipoprotein B mRNA: 82%
[3]; high fat fed mice, 50 mg/kg i.p. twice weekly, 2 weeks after cessation of dosing
  % Inhibition apolipoprotein B mRNA: 78%
[3]; high fat fed mice, 50 mg/kg i.p. twice weekly, 4 weeks after cessation of dosing
  % Inhibition apolipoprotein B mRNA: 49%
[3]; high fat fed mice, 50 mg/kg i.p. twice weekly, 6 weeks after cessation of dosing
  % Inhibition apolipoprotein B mRNA: 37%
[3]; high fat fed mice, 50 mg/kg i.p. twice weekly, 8 weeks after cessation of dosing
  % Inhibition apolipoprotein B mRNA: 19%

## 271009 (antisense eG*e[5mC]*e[5mC]*eT*e[5mC]*dA*dG*dT*d[5mC]*dT*dG*d[5mC]*dT*dT*d[5mC]*eG*e[5mC]*eG*e[5mC]*e[5mC]) [compound 271009]
[4]; 50 nM
  % Change in lipoprotein(a) secretion: −25%
[4]; 150 nM
  % Change in lipoprotein(a) secretion: −42%

## 281625 (antisense eA*eG*eG*eT*eT*dA*d[5mC]*d[5mC]*dA*dG*d[5mC]*d[5mC]*dA*d[5mC]*dA*eT*eG*e[5mC]*eA*eG) [compound 281625]
[4]; 50 nM
  % Change in lipoprotein(a) secretion: −26%
[4]; 150 nM
  % Change in lipoprotein(a) secretion: −24%

## 301027 (eG*e[5mC]*eT*e[5mC]*eA*d[5mC]*dT*dG*dT*dA*dT*dG*dG*dT*dT*eT*eT*eA*eT*e[5mC]; antisense) [compound 301027]
[4]; 50 nM
  % Change in lipoprotein(a) secretion: −33%
[4]; 150 nM
  % Change in lipoprotein(a) secretion: −44%

## GTCCCTGAAGATGTCAATGC (2'-MOE gapmer, further chemistry not given here) [ISIS 147764]
[1]; [13]
  mRNA levels: able to lower cholesterol, triglycerides, and mRNA levels in a dose-dependent manner
[2]; [13]
  cholesterol, triglycerides: able to lower cholesterol, triglycerides, and mRNA levels in a dose-dependent manner
[3]; high fat fed C57Bl/6 mice, 50 mg/kg i.p. twice weekly
  time of treatment within which inhibition of apolipoprotein B mRNA occurred: ≤ 2 days
[3]; high fat fed C57Bl/6 mice, after 6 weeks of 50 mg/kg twice weekly
  persistence of effects (mRNA inhibition, cholesterol lowering) after termination of treatment: up to 8 weeks
[5]
  LDL-cholesterol: lowered

## ISIS 281625: SEQ ID NO: 224, 2′-MOE gapmer targeted to human apolipoprotein B (antisense eA*eG*eG*eT*eT*dA*d[5mC]*d[5mC]*dA*dG*d[5mC]*d[5mC]*dA*d[5mC]*dA*eT*eG*e[5mC]*eA*eG)
[6]; 2 weeks
  reduction of serum human apolipoprotein B protein (ELISA): 31%
[6]; 4 weeks
  reduction of serum human apolipoprotein B protein (ELISA): 26%
[6]; 6 weeks
  reduction of serum human apolipoprotein B protein (ELISA): 11%
[6]; 8 weeks
  reduction of serum human apolipoprotein B protein (ELISA): 26%

Source: patent publication US7803930B2, “Antisense modulation of apolipoprotein B-expression” (Isis Pharmaceuticals, Inc., priority 2002, dated 2010)
